Experimental data reported in US20090227671A1, “Prevention and treatment of atherosclerosis with lithospermate B” (Industry-Academic Cooperation Foundation, priority 2005, published 2009).

Columns and labels:
[1] = tested on: vascular smooth muscle cells; experiment: VSMC proliferation induced by PDGF-BB (LDH and MTT assays); assay type: cell-based, Sprague-Dawley rats; conditions: LAB 1, 5, 10, 20, 30 μM pretreatment, PDGF-BB 24 hrs; LDH and MTT assays
Description: Vascular smooth muscle cells ('VSMC' hereinafter) were separated from thoracic aorta of a Sprague-Dawley weighted about 100-150 g by using collagenase digestion method and then cultured them according to the method disclosed in previous studies [[…], et al. Role of p44/p42 MAP kinase in the age-dependent increase in vascular smooth muscle cell proliferation and neointimal formation. Arterioscler Thromb Vasc Biol. Feb. 1 2003; 23(2):204-210.; Hamaguchi A, Kim S, Izumi Y, et al. Contribution of extracellular signal-regulated kinase to angiotensin II-induced transforming growth factor-beta1 expression in vascular smooth muscle cells. Hypertension. July 1999; 34(1):126-131]. […] The VSMC was treated in a culture medium not containing serum for 24 hrs prior to treatment with PDGF-BB, and the reaction according to the presence or absence of PDGF-BB was analyzed after pretreating with LAB or other reagents. […] The cells were then washed twice with PBS, lysed by using 0.5% Triton-X100, and then the activity of lactate dehydronase (LDH) was measured by using CytoTox-ONETM assay kit (Promega, Madison, Wis., USA) with fluorescence at […]. […]

SD rats = experiment: Acute toxicity due to oral administration in SD rats; assay type: in vivo
Procedure: (§1) Acute toxicity test was performed using 6 week old SPF SD rats. The SD rats were divided two per each group and each rat was orally administered once with LAB in the amount of 1 g/kg/1 mL, which was suspended in 0.5% methylcellulose. After the above administration, the rats were subjected to examination with regard to survival, clinical symptoms, change in body weight, and the like and also hematological examination, biochemical blood test. Further, autopsies were performed to observe abnormalities in abdominal organs.

[2] = as above; assay type: in vivo; conditions: SD, rat, in vivo, 1 g/kg; oral, single administration
Procedure: as §1

[3] = tested on: vascular smooth muscle cells; experiment: Cytotoxicity of LAB in VSMC; assay type: cell-based, Sprague-Dawley rats; conditions: LAB up to 30 μM
Procedure: The VSMC was treated in a culture medium not containing serum for 24 hrs prior to treatment with PDGF-BB, and the reaction according to the presence or absence of PDGF-BB was analyzed after pretreating with LAB or other reagents.
To investigate whether LAB decreases the proliferation of VSMC induced by PDGF-BB an experiment was performed as follows. The VSMC was placed in a culture medium not containing serum for 24 hrs to inhibit cell proliferation, and then pretreated with LAB with various concentrations of 1, 5, 10, 20, 30 μM and treated with PDGF-BB for 24 hrs. The extent of VSMC proliferation was compared with that of control as stated above via LDH and MTT assays (FIG. 1).

Compound: O=C(/C=C/c1ccc(O)c2c1[C@H](C(=O)O[C@H](Cc1ccc(O)c(O)c1)C(=O)[O-])[C@@H](c1ccc(O)c(O)c1)O2)O[C@H](Cc1ccc(O)c(O)c1)C(=O)[O-].[Mg+2] [LAB, lithospermate B]
- VSMC proliferation induced by PDGF-BB [1]: decreased in proportion to the concentration
- dose without toxicity to rats (SD rats; oral, single administration): up to 500 mg/kg
- survival (SD rats; single oral dose 1 g/kg in 0.5% methylcellulose): all experimental rats survived
- clinical symptoms, toxicities and other abnormalities (SD rats; single oral dose 1 g/kg, body weight, hematology, blood biochemistry, autopsy): no abnormal clinical symptoms, no toxicities and other abnormalities
- LD50 [2]: > 500 mg/kg
- adverse reaction in VSMC ([3]; highest concentration): no adverse reaction observed
- cytotoxic activities ([3]; data not shown): no cytotoxic activities observed
